{"source": "ChEMBL document CHEMBL5500375", "about": "“Design, synthesis, and evaluation of N1,N3-dialkyldioxonaphthoimidazoliums as antibacterial agents against methicillin-resistant Staphylococcus aureus” (Eur J Med Chem, 2024)", "key": {"Staphylococcus aureus [1]": {"test_system": "Staphylococcus aureus", "assay": "Induction of ROS generation in methicillin-resistant Staphylococcus aureus USA300 using hydroxyphenyl fluorescein at 0.09 ug/ml under anaerobic condition", "type": "functional, organism-based", "conditions": "dose 0.09 µg/ml, TDE = time-dependent effect"}, "Staphylococcus aureus [2]": {"test_system": "Staphylococcus aureus", "assay": "Induction of ROS generation in methicillin-resistant Staphylococcus aureus USA300 using hydroxyphenyl fluorescein at 0.19 ug/ml under anaerobic condition", "type": "functional, organism-based", "conditions": "dose 0.19 µg/ml"}, "Staphylococcus aureus [3]": {"test_system": "Staphylococcus aureus", "assay": "Antibacterial agents against methicillin-sensitive Staphylococcus aureus Newman assessed as absence of growth at 0.19 ug/ml measured after overnight incubation under anaerobic condition in presence of N-acetylcysteine by micro-dilution method", "type": "functional, organism-based", "conditions": "dose 0.19 µg/ml"}, "Pseudomonas aeruginosa [4]": {"test_system": "Pseudomonas aeruginosa", "assay": "Antibacterial agents against gram negative Pseudomonas aeruginosa PA14 assessed as reduction in colony forming unit at 0.78 ug/ml measured upto 10 hrs in presence of 0.1 ug/ml Polymyxin B by LB agar medium method", "type": "functional, organism-based", "conditions": "dose 0.78 µg/ml"}, "Staphylococcus aureus [5]": {"test_system": "Staphylococcus aureus", "assay": "Antibacterial agents against c5-resistant mutant of methicillin-resistant Staphylococcus aureus SA3 m4 assessed as absence of growth measured after 18 hrs by micro-dilution method", "type": "functional"}, "Staphylococcus aureus [6]": {"test_system": "Staphylococcus aureus", "assay": "Antibacterial activity against methicillin-resistant Staphylococcus aureus SA3 assessed as resistance by measuring antibacterial activity after 10 passages at 0.39 ug/ml by emergence of bacterial resistance assay", "type": "functional, organism-based", "conditions": "dose 0.39 µg/ml"}, "Staphylococcus aureus [7]": {"test_system": "Staphylococcus aureus", "assay": "Antibacterial agents against c5-resistant mutant of methicillin-resistant Staphylococcus aureus SA3 m3 assessed as absence of growth at 0.19 ug/ml measured after overnight incubation under anaerobic condition in presence of N-acetylcysteine by micro-dilution method", "type": "functional, organism-based", "conditions": "dose 0.19 µg/ml"}, "Staphylococcus aureus [8]": {"test_system": "Staphylococcus aureus", "assay": "Bactericidal activity against methicillin-resistant Staphylococcus aureus SA3 assessed as as reduction in colony forming unit at 0.78 ug/ml measured within 10 hrs by time-kill assay", "type": "functional", "conditions": "dose 0.78 µg/ml"}, "Staphylococcus aureus [9]": {"test_system": "Staphylococcus aureus", "assay": "Anti-biofilim activity against methicillin-resistant Staphylococcus aureus USA300 assessed decrease in biofilm growth at 1 to 10 times of MIC concentration measured after 12 to 24 hrs incubation", "type": "functional, organism-based", "conditions": "time 12-24 hrs"}, "Staphylococcus aureus [10]": {"test_system": "Staphylococcus aureus", "assay": "Antibacterial agents against c5-resistant mutant of methicillin-resistant Staphylococcus aureus SA3 m5 assessed as absence of growth at 0.19 ug/ml measured after overnight incubation under anaerobic condition in presence of N-acetylcysteine by micro-dilution method", "type": "functional, organism-based", "conditions": "dose 0.19 µg/ml"}, "[11]": {"assay": "In vivo toxicity in Drosophila melanogaster strain Oregon R assessed as survival rate at 0.1 to 1 mg/ml measured upto 72 hrs relative to control", "type": "organism-based", "conditions": "Oregon R, at 0.1 to 1 mg/mL, dose 0.1-1 mg/ml"}, "Staphylococcus aureus [12]": {"test_system": "Staphylococcus aureus", "assay": "Bactericidal activity against methicillin-resistant Staphylococcus aureus SA3 assessed as as reduction in colony forming unit at 0.78 ug/ml measured upto 10 hrs by time-kill assay", "type": "functional, organism-based", "conditions": "dose 0.78 µg/ml"}, "Pseudomonas aeruginosa [13]": {"test_system": "Pseudomonas aeruginosa", "assay": "Antibacterial agents against gram negative Pseudomonas aeruginosa PA14 assessed as reduction in colony forming unit at 0.78 ug/ml measured upto 10 hrs in presence of 0.05 ug/ml Polymyxin B by LB agar medium method", "type": "functional, organism-based", "conditions": "dose 0.78 µg/ml"}, "Staphylococcus aureus [14]": {"test_system": "Staphylococcus aureus", "assay": "Antibacterial agents against methicillin-resistant Staphylococcus aureus SA3 assessed as absence of growth measured after 18 hrs by micro-dilution method", "type": "functional"}, "Bacillus subtilis": {"test_system": "Bacillus subtilis", "assay": "Antibacterial agents against Bacillus subtilis PS380 assessed as absence of growth measured after 18 hrs by micro-dilution method", "type": "functional"}, "[15]": {"assay": "Therapeutic index, ratio of IC50 for HEK293 cells to MIC for […] activity against methicillin-resistant Staphylococcus aureus SA3", "type": "toxicity", "conditions": "human, read-out: TI"}, "Staphylococcus aureus [16]": {"test_system": "Staphylococcus aureus", "assay": "Induction of ROS generation in methicillin-resistant Staphylococcus aureus SA3 using hydroxyphenyl fluorescein at 0.09 ug/ml under anaerobic condition", "type": "functional, organism-based", "conditions": "dose 0.09 µg/ml, TDE = time-dependent effect"}, "Staphylococcus aureus [17]": {"test_system": "Staphylococcus aureus", "assay": "Antibacterial agents against methicillin-sensitive Staphylococcus aureus SA1 assessed as absence of growth measured after 18 hrs by micro-dilution method", "type": "functional"}, "Staphylococcus aureus [18]": {"test_system": "Staphylococcus aureus", "assay": "Reduction in virulent activity of methicillin-resistant Staphylococcus aureus SA3 infected in dorsal thorax of Drosophila melanogaster strain Oregon R at 0.2 mg/ml measured upto 72 hrs", "type": "functional, organism-based"}, "Staphylococcus aureus [19]": {"test_system": "Staphylococcus aureus", "assay": "Antibacterial agents against c5-resistant mutant of methicillin-resistant Staphylococcus aureus SA3 m2 assessed as absence of growth at 0.19 ug/ml measured after overnight incubation under anaerobic condition in presence of N-acetylcysteine by micro-dilution method", "type": "functional, organism-based", "conditions": "dose 0.19 µg/ml"}, "Staphylococcus aureus [20]": {"test_system": "Staphylococcus aureus", "assay": "Anti-biofilim activity against methicillin-resistant Staphylococcus aureus SA3 assessed decrease in biofilm growth at 1 to 10 times of MIC concentration measured after 12 to 24 hrs incubation", "type": "functional, organism-based", "conditions": "time 12-24 hrs"}, "Staphylococcus aureus [21]": {"test_system": "Staphylococcus aureus", "assay": "Antibacterial activity against methicillin-resistant Staphylococcus aureus SA3 assessed as fold increase in MIC measured after 16 passages to MIC during first passage", "type": "functional"}}, "note": "The source made the active and inactive calls. The rule behind the calls is not given here."}
{"smiles": "CCCCCCCCn1c2c([n+](Cc3ccccc3)c1C)C(=O)c1ccccc1C2=O.[Br-]", "values": [{"measurement": "Activity", "setting": "Staphylococcus aureus [1]", "result": "Tde"}, {"measurement": "Activity", "setting": "Staphylococcus aureus [2]", "result": "Active"}, {"measurement": "Activity", "setting": "Staphylococcus aureus [3]", "result": "inactive"}, {"measurement": "Activity", "setting": "Pseudomonas aeruginosa [4]", "result": "Active"}, {"measurement": "MIC", "setting": "Staphylococcus aureus [5]", "result": 6.25, "unit": "µg/mL"}, {"measurement": "Activity", "setting": "Staphylococcus aureus [6]", "result": "Active"}, {"measurement": "Activity", "setting": "Staphylococcus aureus [7]", "result": "inactive"}, {"measurement": "Activity", "setting": "Staphylococcus aureus [8]", "result": 3, "unit": "log10CFU/ml"}, {"measurement": "Activity", "setting": "Staphylococcus aureus [9]", "result": "Active"}, {"measurement": "Activity", "setting": "Staphylococcus aureus [10]", "result": "inactive"}, {"measurement": "survival at 72 h", "setting": "[11]", "result": 75, "unit": "%"}, {"measurement": "Activity", "setting": "Staphylococcus aureus [12]", "result": "Active"}, {"measurement": "Activity", "setting": "Pseudomonas aeruginosa [13]", "result": "inactive"}, {"measurement": "MIC", "setting": "Staphylococcus aureus [14]", "result": 0.39, "unit": "µg/mL"}, {"measurement": "MIC", "setting": "Bacillus subtilis", "result": 0.39, "unit": "µg/mL"}, {"measurement": "selectivity ratio", "setting": "[15]", "result": 0.8}, {"measurement": "Activity", "setting": "Staphylococcus aureus [16]", "result": "Tde"}, {"measurement": "MIC", "setting": "Staphylococcus aureus [17]", "result": 0.19, "unit": "µg/mL"}, {"measurement": "Activity", "setting": "Staphylococcus aureus [18]", "result": "inactive"}, {"measurement": "Activity", "setting": "Staphylococcus aureus [19]", "result": "inactive"}, {"measurement": "Activity", "setting": "Staphylococcus aureus [20]", "result": "Active"}, {"measurement": "fold change (FC)", "setting": "Staphylococcus aureus [21]", "result": 4}]}
